# Results as given in US20260176275A1, “VINYLPHOSPHONIC ACID-MODIFIED MRNA CAP ANALOG, METHOD FOR PREPARING SAME, AND USE THEREOF” (Jiangsu Synthgene Biotechnology Co., Ltd., priority 2022, published 2026).
# Legend:
# T7 RNA polymerase [1] = biological target: T1, T7 RNA polymerase (Escherichia phage T7, UniProt P00573); test: mRNA in-vitro transcription yield with cap analog (T7 IVT, Nanodrop One quantification); assay type: biochemical
# Experimental: (§1) In-vitro synthesis of mRNA cap analogs modified with vinylphosphonic acid: Firstly, a plasmid was linearized with NotI and digested at […] overnight. A DNA template was extracted. mRNAs were synthesized by in-vitro transcription using the vinylphosphonic acid-modified mRNA cap analogs of Examples 1-7 and compounds 10-13, 16, 17, 25, 31 and 34, and the cap analog of Comparative Example 1 as cap structures, respectively.
# (§2) Note: During the experiment, the volume of the materials required for the system was calculated firstly, and then sample loading was performed. Firstly, sterile enzyme-free water was added into the system, and then 10× buffer, NTPs, and the cap analog were sequentially added. The mixture was uniformly mixed and then gently centrifuged, followed by addition of the nuclease inhibitor, the inorganic pyrophosphatase, the T7 RNA polymerase, and the linearized DNA template. The mixture was well mixed, then gently centrifuged, and incubated at 37° C. After 2 h, DNase I (1 U) was added, and the mixture was incubated at 37° C. for another 30 min to remove the DNA template. RNA purification was then performed (usually using the magnetic bead purification method). The purified mRNA was dissolved in sterile enzyme-free water, and then quantitative detection was performed by using Nanodrop One.
# T7 RNA polymerase [2] = biological target: T1, T7 RNA polymerase; test: IVT capping rate of mRNA by LC-MS after RNase H cleavage; assay type: biochemical
# Experimental: as §1, §2
# Liquid chromatography-mass spectrometry (LC-MS) was used to detect the IVT capping rates of mRNAs with different starting cap analogs. Firstly, a labeled (usually biotin-labeled) DNA probe matched with the starting base of mRNA as the transcript product was required to be designed, and streptavidin-labeled magnetic beads were washed, and then incubated with the synthesized DNA probe, mRNA and 10× RNase H reaction buffer with slowly mixing at room temperature for 30 min. 20 L of RNase H (5 U/μL) was then added, and the mixture was incubated at 37° C. for 3 h, with uniform mixing every half hour. After the incubation was completed, the magnetic beads were cleaned, and then 100 μL of 75% methanol heated to 80° C. was added to the cleaned magnetic beads. The mixture was heated to 80° C. on a heating plate, held for 3 min, and then placed on a magnetic rack. The supernatant was pipetted and dried at room temperature for 45 min to 10 Lby using an evaporation centrifuge. The sample was then resuspended in 50 μL of 100 μM EDTA/1% MeOH for LC-MS analysis to determine the capping of RNA in the transcription reaction. Due to the significant difference in molecular weight between capped and uncapped bases, the capping rates of mRNA transcription initiated with different cap analogs can be determined by using the difference in molecular weight.
# [3] = biological target: eukaryotic initiation factor (elF4E) (Homo sapiens, UniProt P06730); test: Assay of binding ability to eukaryotic initiation factor (elF4E), Biacore T100
# Experimental: Test method: Firstly, experimental samples, including the cap analog samples of Examples 1-7, compounds 10-13, 16, 17, 25, 31 and 34, and Comparative Example 1, were diluted with a running buffer (50 mM phosphate, 100 mM sodium chloride, and 0.01% vol/vol Tween 20, pH 6.0 or 7.4). The sample injection time was […], the sample injection flow rate was 20 L/min, and the dissociation time was […]. The residual samples were eluted with a regeneration buffer (10 mM HEPES, 150 mM NaCl, and 0.010% vol/vol Tween 20, pH 7.4) for 30 s at a flow rate of 30 μL/min. Finally, through analysis by Biacore T100 evaluation software (version 2.0.2), sensorgrams were generated and the binding constants were calculated.
# 293T cells = test: mRNA translation efficiency: eGFP mRNA capped with the analogs transfected into 293T cells, GFP fluorescence; assay type: cell-based; details: summary of Table 6
# Experimental: Test method: In-vitro transcription was initiated with the cap analogs of Examples 1-7, compounds 10-13, 16, 17, 25, 31 and 34, and Comparative Example 1 by using an eGFP coding sequence as a DNA template. The different mRNA products obtained were then transfected into 293T cells. The 293T cells were plated (onto a 24-well plate) at (0.5-1)×10^5 cells/well. During the transfection, in general, the cell density was preferably 60%-80%; […] was transfected into each well, and the Lipofectamine MessengerMAX Transfection Reagent (Invitrogen) was selected as the transfection reagent and used according to its usage instructions. The transfected cells were placed in an incubator at 37° C. with CO2. After transfection for 4-6 h, the medium was replaced with a fresh complete medium. After incubation in the incubator at 37° C. with CO2 for 24 h, the fluorescence intensity of GFPs in the cells was observed through a fluorescence microscope, and the fluorescence intensity ratios of Examples 1-7 and compounds 10-13, 16, 17, 25, 31 and 34 relative to Comparative Example 1 were calculated based on the fluorescence intensities.
# T1 sequence (P00573 whole entry): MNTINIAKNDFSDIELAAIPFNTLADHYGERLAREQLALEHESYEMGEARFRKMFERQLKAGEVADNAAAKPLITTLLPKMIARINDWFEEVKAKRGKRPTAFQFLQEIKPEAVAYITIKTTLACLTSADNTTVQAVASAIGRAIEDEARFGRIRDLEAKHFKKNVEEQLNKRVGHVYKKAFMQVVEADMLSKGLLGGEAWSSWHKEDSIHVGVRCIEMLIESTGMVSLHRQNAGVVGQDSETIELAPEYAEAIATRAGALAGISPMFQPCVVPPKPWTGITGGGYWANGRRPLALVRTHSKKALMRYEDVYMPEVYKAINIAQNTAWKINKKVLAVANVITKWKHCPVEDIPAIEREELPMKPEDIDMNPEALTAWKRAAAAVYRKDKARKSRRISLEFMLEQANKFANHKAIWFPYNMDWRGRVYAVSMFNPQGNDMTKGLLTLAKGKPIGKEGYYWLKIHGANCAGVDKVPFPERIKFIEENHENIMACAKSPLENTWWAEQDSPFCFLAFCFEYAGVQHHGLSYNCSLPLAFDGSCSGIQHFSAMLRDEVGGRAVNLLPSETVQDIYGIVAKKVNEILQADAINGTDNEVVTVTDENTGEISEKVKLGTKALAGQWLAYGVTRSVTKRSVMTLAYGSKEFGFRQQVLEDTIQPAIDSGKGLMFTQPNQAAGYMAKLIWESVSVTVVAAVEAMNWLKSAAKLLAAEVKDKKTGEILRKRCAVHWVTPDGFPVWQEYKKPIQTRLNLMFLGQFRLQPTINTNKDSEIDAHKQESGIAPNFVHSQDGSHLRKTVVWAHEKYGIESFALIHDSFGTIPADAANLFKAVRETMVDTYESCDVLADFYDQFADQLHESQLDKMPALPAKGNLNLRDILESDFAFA
# eukaryotic initiation factor (elF4E), sequence (P06730 whole entry): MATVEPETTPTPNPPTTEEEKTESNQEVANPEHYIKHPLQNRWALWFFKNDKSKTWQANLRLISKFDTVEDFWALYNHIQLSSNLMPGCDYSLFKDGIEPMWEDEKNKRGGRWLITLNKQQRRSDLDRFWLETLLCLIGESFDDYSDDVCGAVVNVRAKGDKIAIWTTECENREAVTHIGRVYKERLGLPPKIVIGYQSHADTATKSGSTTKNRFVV
structure (smiles),measurement,setting,value
COC1[C@@H](OP(=O)(O)/C=C/[C@H]2O[C@@H](n3cnc4c(=O)[nH]c(N)nc43)C(O)[C@H]2O)[C@@H](/C=C\P(=O)(O)OP(=O)(O)OP(=O)(O)/C=C\[C@H]2O[C@@H](n3c[n+](C)c4c(=O)[nH]c(N)nc43)[C@@H](O)C2O)O[C@H]1n1cnc2c(N)ncnc21 (stereo partly shown) [Example 7],Yield,"T7 RNA polymerase [1]; mRNA from 20 μL IVT system, 1 μl 100 mM cap analog, 1 μg template, 37° C. 2 h",85 µg
same,in-vitro transcription yield compared with Comparative Example 1 (in words),T7 RNA polymerase [1]; text summary of Table 4,significantly lower than those of Comparative Example 1
same,Capping rate,T7 RNA polymerase [2]; LC-MS of mRNA transcribed with the cap analog,82.6%
same,capping efficiency compared with Comparative Example 1 (in words),T7 RNA polymerase [2]; text summary of Table 4,significantly lower than those of Comparative Example 1
same,binding constant to elF4E protein compared with Comparative Example 1 (in words),[3]; Table 5,the lowest as compared to Comparative Example 1
same,Kd,"[3]; cap analog to elF4E protein, running buffer pH 6.0 or 7.4, read-out: Binding constant (converted)",1160 nM
same,intracellular translation effect of mRNA compared with Comparative Example 1 (in words),293T cells,the lowest as compared to Comparative Example 1
